Data on 2 molecules can be found in US8722731B2, “Furanyl compounds and the use thereof” (NovoMedix, LLC, priority 2010, dated 2014).

For one test, the system named is U87-MG. As to the kind of experiment: IC50 cell-based assay, adherent cells, U87-MG. The note with it: Homo sapiens, U-87 MG, Brain, glioblastoma, 72 hours, read-out: IC50 of Compounds in Adherent Cell Types. The protocol:
(§1) In one embodiment, the IC50s of the compounds provided herein were determined in cell-based assays using adherent cells. In one embodiment, the activity of the compounds provided herein were determined in a cell-based assay using the triple negative breast cancer cell line MDA-MB-468. In one embodiment, the adherent cells used in the cell-based assays may be a cell type selected from Table 1. In one embodiment, the cell-based assay may be carried out as provided herein. On day 0, cells were seeded at 20,000 cells per well in 100 µL of media into individual wells of a 96-well tissue culture plate. The next day, compounds were diluted to twice the desired final concentration and added in 100 µL of media for a final volume of 200 μL. Standard solutions for each compound were prepared at 1000× concentration in DMSO. The highest concentration was 30 mM. Serial 1:1 dilutions were made from there for a 6- or 9-point curve (e.g., 30 mM, 15 mM, 7.5 mM, etc). Compounds were then diluted 1:500 in media, and 100 µL of the resulting solution was added to each well for a final dilution of 1:1000. Each concentration of compound was tested in triplicate. Cells were incubated at 37° C. with 5% CO2. After 72 hours, 20 μL of CellTiter 96 Aqueous One Solution Cell Proliferation Assay (Promega) was added to each well. Cells were placed back in the incubator, and the absorbance at 490 nm was read after 2-3 hours. The concentration of compound that decreased the number of metabolically active cells by 50% was determined and reported as the IC50. “Percent Viability” was determined by subtracting the average background value (media only) and expressed as a ratio to the average value obtained from cells treated with only DMSO.

For test [1], the system named is triple negative breast cancer cell line MDA-MB-468. Put plainly: IC50 cell-based assay, adherent cells, MDA-MB-468. The note with it: Homo sapiens. The protocol:
as §1
The IC50s of the compounds provided herein were determined in cell-based assay using triple negative breast cancer cell line MDA-MB-468.

Another test has as its system SKBR-3. Put plainly: IC50 cell-based assay, adherent cells, SKBR-3. The note with it: Homo sapiens, SK-BR-3, Breast, ER−, 72 hours, read-out: IC50 of Compounds in Adherent Cell Types. The protocol: as §1
The next test concerns MDA-MB-361. As to the kind of experiment: IC50 cell-based assay, adherent cells, MDA-MB-361. The note with it: Homo sapiens, Breast, Brain met Her2-neu + ER +, 72 hours, read-out: IC50 of Compounds in Adherent Cell Types. The protocol:
as §1

The test system of another test is MDA-MB-231. Put plainly: IC50 cell-based assay, adherent cells, MDA-MB-231. The note with it: Homo sapiens, Breast, triple neg, 72 hours, read-out: IC50 of Compounds in Adherent Cell Types. As for the experimental part:
as §1

For a further test, the system named is HT-29. Put plainly: IC50 cell-based assay, adherent cells, HT-29. The note with it: Homo sapiens, Colorectal, adenocarcinoma, 72 hours, read-out: IC50 of Compounds in Adherent Cell Types. The protocol:
as §1

The subject of a further test is SK-MEL-28. As to the kind of experiment: IC50 cell-based assay, adherent cells, SK-MEL-28. The note with it: Homo sapiens, Melanoma, 72 hours, read-out: IC50 of Compounds in Adherent Cell Types. The protocol:
as §1

For a further test, the system named is Hep-G2. Put plainly: IC50 cell-based assay, adherent cells, Hep-G2. The note with it: Homo sapiens, HepG2, Liver, hepatocellular carcinoma, 72 hours, read-out: IC50 of Compounds in Adherent Cell Types. As for the experimental part: as §1
A further test relates to H-460. Put plainly: IC50 cell-based assay, adherent cells, H-460. The note with it: Homo sapiens, NCI-H460, Lung, large cell carcinoma, 72 hours, read-out: IC50 of Compounds in Adherent Cell Types. As for the experimental part: as §1
The test system of a further test is OVCAR-3. Put plainly: IC50 cell-based assay, adherent cells, OVCAR-3. The note with it: Homo sapiens, Ovarian, adenocarcinoma, 72 hours, read-out: IC50 of Compounds in Adherent Cell Types. As for the experimental part:
as §1

The subject of the next test is AsPC-1. Put plainly: IC50 cell-based assay, adherent cells, AsPC-1. The note with it: Homo sapiens, ASPC1, Pancreas, carcinoma, 72 hours, read-out: IC50 of Compounds in Adherent Cell Types. The protocol:
as §1

Another test relates to Mia PaCa-2. As to the kind of experiment: IC50 cell-based assay, adherent cells, Mia PaCa-2. The note with it: Homo sapiens, Pancreas, carcinoma, 72 hours, read-out: IC50 of Compounds in Adherent Cell Types. As for the experimental part: In one embodiment, the IC50s of the compounds provided herein were determined in cell-based assays using adherent cells. In one embodiment, the activity of the compounds provided herein were determined in a cell-based assay using the triple negative breast cancer cell line MDA-MB-468. In one embodiment, the adherent cells used in the cell-based assays may be a cell type selected from Table 1. In one embodiment, the cell-based assay may be carried out as provided herein. On day 0, cells were seeded at 20,000 cells per well in 100 µL of media into individual wells of a 96-well tissue culture plate. The next day, compounds were diluted to twice the desired final concentration and added in 100 µL of media for a final volume of 200 μL. Standard solutions for each compound were prepared at 1000× concentration in DMSO. The highest concentration was 30 mM. Serial 1:1 dilutions were made from there for a 6- or 9-point curve (e.g., 30 mM, 15 mM, 7.5 mM, etc). Compounds were then diluted 1:500 in media, and 100 µL of the resulting solution was added to each well for a final dilution of 1:1000. […] Cells were placed back in the incubator, and the absorbance at 490 nm was read after 2-3 hours. […] “Percent Viability” was determined by subtracting the average background value (media only) and expressed as a ratio to the average value obtained from cells treated with only DMSO.

The test system of a further test is Panc-1. As to the kind of experiment: IC50 cell-based assay, adherent cells, Panc-1. The note with it: Homo sapiens, Pancreas, epitheloid carcinoma, 72 hours, read-out: IC50 of Compounds in Adherent Cell Types. As for the experimental part: as §1
Another test relates to FaDu. Put plainly: IC50 cell-based assay, adherent cells, FaDu. The note with it: Homo sapiens, Pharynx, squamous cell, 72 hours, read-out: IC50 of Compounds in Adherent Cell Types. As for the experimental part:
as §1

Another test relates to A431. Put plainly: IC50 cell-based assay, adherent cells, A431. The note with it: Homo sapiens, A-431, Skin, epidermoid carcinoma, 72 hours, read-out: IC50 of Compounds in Adherent Cell Types. As for the experimental part: as §1
The subject of a further test is Molt-4. As to the kind of experiment: IC50 cell-based assay, suspension cells, Molt-4. The note with it: Homo sapiens, Leukemia, ALL, read-out: IC50 of Compounds in Suspension Cell Types. As for the experimental part: In one embodiment, the IC50s of the compounds provided herein were determined in cell-based assays using adherent cells. In one embodiment, the activity of the compounds provided herein were determined in a cell-based assay using the triple negative breast cancer cell line MDA-MB-468. In one embodiment, the adherent cells used in the cell-based assays may be a cell type selected from Table 1. In one embodiment, the cell-based assay may be carried out as provided herein. On day 0, cells were seeded at 20,000 cells per well in 100 µL of media into individual wells of a 96-well tissue culture plate. The next day, compounds were diluted to twice the desired final concentration and added in 100 µL of media for a final volume of 200 μL. […] Cells were placed back in the incubator, and the absorbance at 490 nm was read after 2-3 hours. […] “Percent Viability” was determined by subtracting the average background value (media only) and expressed as a ratio to the average value obtained from cells treated with only DMSO.
In one embodiment, the IC50s of the compounds provided herein were determined in cell-based assays using suspension cells. In one embodiment, the activity of the compounds provided herein were determined in a cell-based assay using the JeKo-1 cell line (mantle cell lymphoma) or the Pfeiffer cell line (diffuse large B-cell lymphoma). […]

Another test deals with MHH-CALL-4. Put plainly: IC50 cell-based assay, suspension cells, MHH-CALL-4. The note with it: MHHCALL4, Leukemia, B-ALL (CRLF2 Hi), read-out: IC50 of Compounds in Suspension Cell Types. The protocol: as §1
(§2) In one embodiment, the IC50s of the compounds provided herein were determined in cell-based assays using suspension cells. In one embodiment, the activity of the compounds provided herein were determined in a cell-based assay using the JeKo-1 cell line (mantle cell lymphoma) or the Pfeiffer cell line (diffuse large B-cell lymphoma). In one embodiment, the suspension cells used in the cell-based assays may be a cell type selected from Table 2. Assays with suspension cells were similar except that 40,000-60,000 cells were added to each well and compounds were added immediately after cell plating.

The next test deals with Kg1a. As to the kind of experiment: IC50 cell-based assay, suspension cells, Kg1a. The note with it: Homo sapiens, KG-1a, Leukemia, AML, read-out: IC50 of Compounds in Suspension Cell Types. The protocol: as §1, §2
Another test relates to Nalm-6. As to the kind of experiment: IC50 cell-based assay, suspension cells, Nalm-6. The note with it: Homo sapiens, Leukemia, B-ALL, read-out: IC50 of Compounds in Suspension Cell Types. The protocol: as §1, §2
The test system of another test is Nalm-6-VR. Put plainly: IC50 cell-based assay, suspension cells, Nalm-6-VR. The note with it: Leukemia, B-ALL, Vincristine resistant, read-out: IC50 of Compounds in Suspension Cell Types. As for the experimental part:
as §1, §2

Another test concerns SupB15. Put plainly: IC50 cell-based assay, suspension cells, SupB15. The note with it: Homo sapiens, SUP-B15, Leukemia, B-ALL (Philadelphia chromosome+), read-out: IC50 of Compounds in Suspension Cell Types. The protocol:
as §1, §2

In a further test the test system is Z138, JeKo-1. As to the kind of experiment: IC50 cell-based assay, suspension cells, Z138, JeKo-1. The note with it: Lymphoma, Mantle cell, read-out: IC50 of Compounds in Suspension Cell Types. As for the experimental part:
as §1, §2

The mark [2] stands for this setting: MDA-MB-468, Breast, triple neg, 72 hours, Table 1, read-out: IC50 of Compounds in Adherent Cell Types.
[3] abbreviates: MDA-MB-468 cells, Table 3, read-out: IC50 of Compounds in MDA-MB-468 Cells.

Structures are written as SMILES. Like-named read-outs stand apart in the source and are kept apart here. Some results are limits rather than exact numbers.

Regarding `O=C(Nc1cc(C(F)(F)F)cc(C(F)(F)F)c1)c1cc(-c2ccccc2)oc1C(F)(F)F` [Compound 1, 5-Phenyl-2-trifluoromethyl-furan-3-carboxylic acid (3,5-bis-trifluoromethyl-phenyl)-amide], the IC50 (as a rule, the concentration needed to halve the response being measured) is less than 5 µM in the test with U87-MG; less than 5 µM in test [1] (setting [2]); 1.5 µM in test [1] (setting [3]); less than 5 µM in the test with SKBR-3; less than 5 µM in the test on MDA-MB-361; less than 5 µM with MDA-MB-231. Besides, the IC50 with HT-29 is less than 5 µM; with SK-MEL-28, less than 5 µM; in the test on Hep-G2 it was 5 to 10 µM; with H-460 it was 10 to 20 µM; in the test with OVCAR-3 it was less than 5 µM; in the test with AsPC-1 it was less than 5 µM. Also, the half-maximal inhibitory concentration (IC50) with Mia PaCa-2 was less than 5 µM; in the test on Panc-1 it was less than 5 µM; with FaDu, less than 5 µM; in the test with A431, less than 5 µM; with Molt-4, less than 5 µM; in the test with MHH-CALL-4, 5 to 10 µM. For the same molecule, the concentration for half-maximal inhibition (IC50) in the test on Kg1a is less than 5 µM; in the test on Nalm-6, less than 5 µM; in the test on Nalm-6-VR, less than 5 µM; in the test with SupB15, less than 5 µM; with Z138, JeKo-1, less than 5 µM.
As to `O=C(Nc1cc(C(F)(F)F)cc(C(F)(F)F)c1)c1cc(-c2ccc(Cl)cc2)oc1C(F)(F)F` [Compound 2, 5-(4-Chlorophenyl)-N-(3,5-bistrifluoromethylphenyl)-2-trifluoromethylfuran-3-carboxamide], the IC50 is 5 to 10 µM in the test on U87-MG; less than 5 µM in test [1] (setting [2]); 1.5 µM in test [1] (setting [3]); less than 5 µM with SKBR-3; less than 5 µM with MDA-MB-361; less than 5 µM with MDA-MB-231. In addition, the IC50 with HT-29 was 5 to 10 µM; in the test on SK-MEL-28 it was 5 to 10 µM; in the test with Hep-G2, 5 to 10 µM; in the test on H-460, greater than 20 µM; in the test on OVCAR-3, 5 to 10 µM; in the test with AsPC-1, 5 to 10 µM. For the same molecule, the IC50 in the test with Panc-1 was 5 to 10 µM; in the test with FaDu, less than 5 µM; in the test with A431, less than 5 µM; in the test with MHH-CALL-4 it was less than 5 µM; with Kg1a, less than 5 µM; in the test on Nalm-6, less than 5 µM. The half-inhibitory concentration (IC50) in the test with Nalm-6-VR is less than 5 µM; in the test with SupB15, less than 5 µM; in the test on Z138, JeKo-1 it was less than 5 µM.
